Results taken from patent US12285407B2, “Bis-indolylmethane derivatives and uses thereof” (The University of The West Indies, priority 2018, dated 2025).

Assays:
[1] = test system: Streptococcus pyogenes ATCC 19615; assay: Broth microdilution MIC of SP-BIMs; assay type: cell-based; details: ATCC19615, SP-BIM alone, read-out: MIC Streptococcus pyogenes ATCC 19615
[2] = test system: Bacillus cereus ATCC 14579; assay: Broth microdilution MIC of SP-BIMs; assay type: cell-based; details: ATCC14579, SP-BIM alone, read-out: MIC Bacillus cereus ATCC 14579
[3] = test system: Enterococcus faecium ATCC 19434; assay: Broth microdilution MIC of SP-BIMs; assay type: cell-based; details: ATCC19434, SP-BIM alone, read-out: MIC Enterococcus faecium ATCC 19434
[4] = test system: Corynebacterium diphtheriae ATCC 27010; assay: Broth microdilution MIC of SP-BIMs; assay type: cell-based; details: ATCC27010, SP-BIM alone, read-out: MIC Corynebacterium diphtheriae ATCC 27010
[5] = test system: Staphylococcus aureus ATCC 12600; assay: Broth microdilution MIC of SP-BIMs; assay type: cell-based; details: ATCC12600, SP-BIM alone, read-out: MIC Staphylococcus aureus ATCC 12600
[6] = test system: Klebsiella pneumoniae ATCC 49472; assay: Broth microdilution MIC of SP-BIMs; assay type: cell-based; details: ATCC49472, SP-BIM alone, read-out: MIC Klebisella pneumoniae ATCC 49472
[7] = test system: Escherichia coli ATCC 35218; assay: Broth microdilution MIC of SP-BIMs; assay type: cell-based; details: ATCC35218, SP-BIM alone, read-out: MIC Escherichia coli ATCC 35218
[8] = test system: Salmonella typhimurium ATCC 14028; assay: Broth microdilution MIC of SP-BIMs; assay type: cell-based; details: Salmonella enterica, read-out: MIC Salmonella tvpkimurium ATCC 14028
Excerpt: Reference microorganisms used in this study included: Bacillus cereus (American Type Culture Collection (ATCC) No. 14579), Streptococcus pyogenes (ATCC No. 19615), Staphylococcus aureus (ATCC No. 12600), Enterococcus faecium (ATCC No. 19434), Corynebacterium diphtheriae (ATCC No. 27010), Escherichia coli (ATCC No. 35218), Salmonella typhimurium (ATCC No. 14028), Pseudomonas aeruginosa (ATCC No. 27853), Klebsiella pneumoniae (ATCC No. 49472), and Candida albicans (ATCC No. 22972).
Prior to each experiment, cultures were streaked onto clean BHI agar plates and incubated at 35° C. for 24 hours. Colonies of the respective cultures were selected and inoculated in phosphate buffer saline (pH 7.5) to a 0.5 McFarland turbidity standard (equivalent to 10^8 CFU mL^−1). The bacterial suspension was then diluted 1:100 in cation adjusted Mueller Hinton Broth (ca-MHB) (Oxoid Ltd, Basingstoke, Hampshire, England).
Stock solutions (50 mg mL^−1) of the SP-BIM test compounds were prepared in DMSO and stored at 4° C. Working preparations of each compound was made up to 1 mg/mL in sterile deionized water with a final DMSO concentration of 10%.
To assess the antibiotic properties of the library of SP-BIMs, the broth microdilution assay was performed in 96-well microplates according to the Clinical and Laboratory Standards Institute 2014 Guidelines (CLSI 2014). The broth microdilution assay was used to determine the minimum inhibitory concentration (MIC). […] Bacterial cells (˜10^6 CFU mL^−1) were inoculated into cation adjusted-Mueller Hinton broth containing the test compound in a twofold serial dilution ranging between 250 μg mL^−1 and 0.02 μg mL^−1. Plates were incubated at 35° C. for 18 hours after which 50 μL of 5% resazurin solution was added to each well. Resazurin is a blue dye which, upon reduction by living cells, turns to a pink resorufin product. Plates were shaken for 1 hour after the addition of the dye. The MIC was recorded as the well with the lowest concentration of test compound where no color change was observed.

[9] = test system: Pseudomonas aeruginosa ATCC 27853; assay: Broth microdilution MIC of SP-BIMs; assay type: cell-based; details: ATCC27853, SP-BIM alone, read-out: MIC Pseudomonas aeruginosa ATCC 27853
[10] = test system: Candida albicans ATCC 22972; assay: Broth microdilution MIC of SP-BIMs; assay type: cell-based; details: ATCC22972, SP-BIM alone, read-out: MIC Candida albicans ATCC 22972
Streptococcus pneumoniae [11] = assay: Adjuvant broth microdilution (antibiotic MIC with SP-BIM at 50 μg/mL); assay type: cell-based; details: Streptococcus pneumoniae, Streptococcus pneumonia, SP-BIM at 50 μg mL^−1
Gram-negative bacteria = assay: Adjuvant broth microdilution; assay type: cell-based; details: SP-BIM at 50 μg mL^−1
Experimental: To each well, the SP-BIM to be tested was added to a final concentration of 50 μg mL^−1. […] SP-BIMs were assessed as potential adjuvants based on their ability to reduce the MIC of the antibiotic against respective pathogen.

sheep erythrocyte = assay: Hemotoxicity (hemolysis assay); assay type: cell-based; details: 2% sheep erythrocyte solution; SP-BIMs 6, 11 and 18 at concentrations between 125-16 μg mL^−1
Experimental: Hemotoxicity of the SP-BIMs were assessed following Wauford, “Hemolysis Assay”, protocols.io/view/hemolysis-assay-fxkbpkw (2016). Briefly, twofold serial dilutions of each test SP-BIM were added to 2% sheep erythrocyte solution and incubated for 30 minutes at 37° C. Samples were centrifuged at 2500 g for 5 minutes and the absorbance of the supernatants measured at 541 nm. Values were represented as percent hemolysis using freeze thaw cells as 100% lysis.

Staphylococcus aureus = assay: Checkerboard synergy (FICI) of antibiotics with SP-BIM; assay type: cell-based
Streptococcus pneumoniae [12] = assay: as above; assay type: cell-based; details: Streptococcus pneumoniae
Bacillus cereus = assay: as above; assay type: cell-based; details: SP-BIM 9 alone, one value per antibiotic's checkerboard, read-out: MIC SP-BIM 9 only
Enterococcus faecium = assay: as above; assay type: cell-based
Klebsiella pneumoniae = assay: as above; assay type: cell-based; details: SP-BIM 9 alone, one value per antibiotic's checkerboard, read-out: MIC SP-BIM 9 only
[13] = test system: reference pathogen strains; assay: Checkerboard synergy study, summary over pathogens; assay type: cell-based; details: Gram-positive pathogens
MRSA HS 10132 = assay: Systemic non-lethal MRSA infection in mice (organ MRSA load); assay type: in vivo
Escherichia coli = assay: Checkerboard synergy (FICI) of antibiotics with SP-BIM; details: read-out: MIC SP-BIM 9 only, Escherichia coli, SP-BIM 9 alone, one value per antibiotic's checkerboard
Pseudomonas aeruginosa = assay: Rescue concentrations of SP-BIM that reactivate antibiotic; assay type: cell-based; details: P. aeruginosa
[14] = read-out: MIC of Kanamvcin with SP-BIM
[15] = read-out: MIC of Vancomvcin with SP-BIM
[16] = MRSA, checkerboard with SP-BIM 9
[17] = ampicillin and SP-BIM 9 at 5 mg kg^−1
[18] = ampicillin and SP-BIM 9 at 10 mg kg^−1

Structure (SMILES): O=Cc1cccc(C(c2c[nH]c3ccccc23)c2c[nH]c3ccccc23)c1 [SP-BIM 6, 3-(di(1H-indol-3-yl)methyl)benzaldehyde]
- MIC [1]: > 250 µg/mL
- MIC [2]: > 250 µg/mL
- MIC [3]: > 250 µg/mL
- MIC [4]: > 250 µg/mL
- MIC [5]: > 250 µg/mL
- MIC [6]: > 250 µg/mL
- MIC [7]: > 250 µg/mL
- MIC [8]: 250 µg/mL
- MIC [9]: 250 µg/mL
- MIC [10]: 250 µg/mL
- MIC (Streptococcus pneumoniae [11]; [14]): 4 µg/mL
- MIC (Streptococcus pneumoniae [11]; [15]): 0.5 µg/mL
- potentiating activity for Gram-negative bacteria (Gram-negative bacteria): No potentiating activity was observed
- hemotoxicity (sheep erythrocyte): very hemotoxic

Structure (SMILES): Oc1cccc(C(c2c[nH]c3ccccc23)c2c[nH]c3ccccc23)c1 [SP-BIM 9, 3-(di(1H-indol-3-yl)methyl)phenol]
- MIC [1]: > 250 µg/mL
- MIC [2]: > 250 µg/mL
- MIC [3]: > 250 µg/mL
- MIC [4]: > 250 µg/mL
- MIC [5]: > 250 µg/mL
- MIC [6]: > 250 µg/mL
- MIC [7]: > 250 µg/mL
- MIC [8]: 250 µg/mL
- MIC [9]: 250 µg/mL
- MIC [10]: 250 µg/mL
- MIC (Streptococcus pneumoniae [11]; [14]): 4 µg/mL
- MIC (Streptococcus pneumoniae [11]; [15]): 0.2 µg/mL
- MIC of aztreonam in combination with 32 μg mL^−1 of SP-BIM 9 (Staphylococcus aureus; MRSA, checkerboard): 8 µg/mL
- effect on MIC of trimethoprim (Staphylococcus aureus; [16]): an increase in the MIC was observed
- reduction of MICs of all the antibiotics except trimethoprim (Staphylococcus aureus; [16]): at least 4 fold
- MIC (Staphylococcus aureus; Staphylococcus aureus, SP-BIM 9 alone, one value per antibiotic's checkerboard, read-out: MIC SP-BIM 9 only): > 250 µg/mL
- MIC (Streptococcus pneumoniae [12]; Streptococcus pneumonia (title: Streptococcus pyogenes), SP-BIM 9 alone, one value per antibiotic's checkerboard, read-out: MIC SP-BIM 9 only): > 250 µg/mL
- effect on MIC of erythromycin (Streptococcus pneumoniae [12]; checkerboard with SP-BIM 9): no effect was observed
- lowering of the MIC of the antibiotics (Streptococcus pneumoniae [12]; checkerboard with SP-BIM 9): at least 4 fold
- MIC (Bacillus cereus): > 250 µg/mL
- MIC of vancomycin with 63 μg mL^−1 SP-BIM 9 (Enterococcus faecium; Enterococcus faecium strain highly resistant to vancomycin): reduced to susceptible levels
- MIC (Enterococcus faecium; Enterococcus faecium, SP-BIM 9 alone, one value per antibiotic's checkerboard, read-out: MIC SP-BIM 9 only): ≥ 250 µg/mL
- MIC (Klebsiella pneumoniae): ≥ 250 µg/mL
- FICI with most of the antibiotics [13]: ≤ 0.5
- MRSA counts in the liver (MRSA HS 10132; SP-BIM 9 only 5 mg kg^−1): 3911 CFU g^−1
- MRSA load in the spleen (MRSA HS 10132; SP-BIM 9 only 5 mg kg^−1): 7327 CFU g^−1
- MRSA counts in the liver (MRSA HS 10132; SP-BIM 9 only 10 mg kg^−1): 2861 CFU g^−1
- MRSA load in the spleen (MRSA HS 10132; SP-BIM 9 only 10 mg kg^−1): 5800 CFU g^−1
- MRSA counts in the liver (MRSA HS 10132; [17]): 167 CFU g^−1
- MRSA load in the spleen (MRSA HS 10132; [17]): 288 CFU g^−1
- MRSA counts in the liver (MRSA HS 10132; [18]): 189 CFU g^−1
- MRSA load in the spleen (MRSA HS 10132; [18]): 211 CFU g^−1
- MIC (Escherichia coli): ≥ 250 µg/mL

Structure (SMILES): Nc1ccc(C(c2c[nH]c3ccccc23)c2c[nH]c3ccccc23)cc1 [SP-BIM 10, 4-(di(1H-indol-3-yl)methyl)aniline]
- MIC [1]: > 250 µg/mL
- MIC [2]: > 250 µg/mL
- MIC [3]: > 250 µg/mL
- MIC [4]: > 250 µg/mL
- MIC [5]: > 250 µg/mL
- MIC [6]: > 250 µg/mL
- MIC [7]: > 250 µg/mL
- MIC [8]: 250 µg/mL
- MIC [9]: 250 µg/mL
- MIC [10]: 250 µg/mL
- MIC (Streptococcus pneumoniae [11]; [14]): 4 µg/mL
- MIC (Streptococcus pneumoniae [11]; [15]): 0.5 µg/mL
- potentiating activity for Gram-negative bacteria (Gram-negative bacteria): No potentiating activity was observed

Structure (SMILES): Oc1ccccc1C(c1c[nH]c2ccccc12)c1c[nH]c2ccccc12 [SP-BIM 11, bis(indol-3-yl)-2-hydroxyphenylmethane]
- MIC [1]: > 250 µg/mL
- MIC [2]: > 250 µg/mL
- MIC [3]: > 250 µg/mL
- MIC [4]: > 250 µg/mL
- MIC [5]: > 250 µg/mL
- MIC [6]: > 250 µg/mL
- MIC [7]: > 250 µg/mL
- MIC [8]: 250 µg/mL
- MIC [9]: 250 µg/mL
- MIC [10]: 250 µg/mL
- MIC (Streptococcus pneumoniae [11]; [14]): 125 µg/mL
- MIC (Streptococcus pneumoniae [11]; [15]): 1 µg/mL
- hemotoxicity (sheep erythrocyte): very hemotoxic

Structure (SMILES): Oc1cc(Br)ccc1C(c1c[nH]c2ccccc12)c1c[nH]c2ccccc12 [SP-BIM 15, 5-bromo-2-(di(1H-indol-3-yl)methyl)phenol]
- MIC [1]: 125 µg/mL
- MIC [2]: 125 µg/mL
- MIC [3]: 125 µg/mL
- MIC [4]: > 250 µg/mL
- MIC [5]: > 250 µg/mL
- MIC [6]: > 250 µg/mL
- MIC [7]: > 250 µg/mL
- MIC [8]: 250 µg/mL
- MIC [9]: 250 µg/mL
- MIC [10]: 250 µg/mL
- MIC (Streptococcus pneumoniae [11]; [14]): 4 µg/mL
- MIC (Streptococcus pneumoniae [11]; [15]): 0.2 µg/mL
- potentiating activity for Gram-negative bacteria (Gram-negative bacteria): No potentiating activity was observed

Structure (SMILES): COc1ccc(C(c2c[nH]c3ccccc23)c2c[nH]c3ccccc23)cc1 [SP-BIM 18, bis(indol-3-yl)-4-methoxyphenylmethane]
- MIC [1]: > 250 µg/mL
- MIC [2]: > 250 µg/mL
- MIC [3]: > 250 µg/mL
- MIC [4]: > 250 µg/mL
- MIC [5]: > 250 µg/mL
- MIC [6]: > 250 µg/mL
- MIC [7]: > 250 µg/mL
- MIC [8]: 250 µg/mL
- MIC [9]: 250 µg/mL
- MIC [10]: 250 µg/mL
- MIC (Streptococcus pneumoniae [11]; [14]): 125 µg/mL
- MIC (Streptococcus pneumoniae [11]; [15]): 1 µg/mL
- hemotoxicity (sheep erythrocyte): very hemotoxic

Structure (SMILES): Oc1ccc2c(C(c3ccc(Br)cc3)c3c[nH]c4cc(O)ccc34)c[nH]c2c1 [SP-BIM 23, 3,3′-((4-bromophenyl)methylene)bis(1H-indol-6-ol)]
- MIC of chloramphenicol in combination with 64 μg/mL SP-BIM 23 (Pseudomonas aeruginosa): 4 µg/mL
- MIC (Pseudomonas aeruginosa; Pseudomonas aeruginosa, agent alone, read-out: MIC (single agent)): > 250 µg/mL
